Structures can show the parent of a compound that is named as a salt.
Test: Oral (sublingual) administration of 5 mg asenapine maleate, plasma AUC and adverse effects
Type: in vivo, healthy adult men
Protocol: Furthermore, in a case where the patch obtained in Example 1 was administered, the incidence proportion of adverse effects on the cardiovascular system in the AUC measurement test was 6%. Note that when 5 mg of asenapine maleate was orally administered (sublingual administration) to the healthy adult men (18 people), the average value of the area under plasma concentration-time curve of the free asenapine for a period between 10 minutes and 72 hours after the administration (AUC0.17-72) was 32,074 pg·hr/mL, the average value of the AUC0.17-72 of the N-desmethyl asenapine was 14,299 pg·hr/mL, and the incidence proportion of adverse effects on the cardiovascular system was 39%.

SMILES: CN1C[C@@H]2c3ccccc3Oc3ccc(Cl)cc3[C@H]2C1 (relative stereo) [asenapine maleate, trans-5-chloro-2-methyl-2,3,3a,12b-tetrahydro-1H-dibenz[2,3:6,7]oxepino[4,5-c]pyrrole]
- AUC0.17-72 of the free asenapine (10 minutes to 72 hours after administration): 32,074 pg·hr/mL
- incidence proportion of adverse effects on the cardiovascular system (healthy adult men (18 people)): 39%

Reference: patent US10583121B2, “Patch” (HISAMITSU PHARMACEUTICAL CO., INC., priority 2012, dated 2020)
